Data: patent US5104889A, “Thiazole derivatives” (Otsuka Pharmaceutical Factory, Inc., priority 1986, dated 1992)
Converted amounts (≈) assume the structure as drawn.

System: fetal bovine heart-derived endothelial cells (FBHE cells)
Test: Angiogenesis inhibiting activity test: inhibition of proliferation of cultured FBHE cells (neutral red uptake, 3 days)
Assay type: cell-based
Conditions: for IC50: Bos taurus, Endothelial cell, 3 days incubation, 10% FBS-added DME, 0.05% DMSO; for IC50 / FGF-/FGF+ ratio: FBHE cells; for FGF-/FGF+ ratio: ratio of IC50 without FGF to IC50 with FGF, 4320 min
Method: For use in this test, FBHE cells purchased from the ATCC were maintained by subculturing in a medium prepared by adding 20 ng/ml of fibroblast growth factor (FGF; Collaborative Research) to Dulbecco's modified Eagle's medium (DME; Nissui Seiyaku) supplemented with 10% fetal bovine serum (FBS). From two days before the start of the experiment, the addition of FGF was omitted and FBHE cells were cultured in DME with 10% FBS alone added. At the start of the experiment, the culture medium was removed, phosphate-buffered saline solution (PBS^(-); Nissui Seiyaku) was added instead, and cells were rinsed lightly. Then the PBS^(-) was removed, an adequate amount of 0.1% EDTA-0.2% trypsin solution was added and, after light rinsing, removed, and cells were stripped off. After addition of 10% FBS-added DME and sufficient pipetting, the cells stripped off were transferred to a centrifugal tube and centrifuged for washing (1,200 rpm, 5 minutes). The viable cell count was determined using a hemocytometer with the number of dead cells stained with trypan blue being substracted. The cell concentration was adjusted to 3×10^3 cells/well using 10% FBS-added DME. A cell suspension was thus prepared. […] For attaining test substance concentrations, serial double dilution was performed starting with 10 μg/ml. The following procedure was followed. Thus, to each well of 96-well Multiplates (Corning), there was added 50 μl of DME containing 10% FBS. Then, 50 μl of each test substance solution having the highest final concentration of 10 μg/ml was added to the well for the highest concentration and then serial dilution was carried out on each plate. Furthermore, 50 μl of FGF (5 ng/ml at maximum) was added to each well, followed by final addition of 100 μl of the cell suspension. The plates prepared by the above procedure were incubated in a carbon dioxide gas incubator for 3 days. After 3 days of incubation, neutral red was added to each well and the cells were allowed to take up the dye by 2 hours incubation in a carbon dioxide gas incubator. Thereafter, the cells were rinsed twice with PBS^(-) or physiological saline. Finally, 100 μl of acid alcohol (a 1:1 mixed solution prepared from 0.1 M aqueous monosodium phosphate solution and ethanol) was added to each well for dissolution thereinto of the dye taken up, and the absorbance of the resultant dye solution was determined using an absorptiometer. The absorbance values measured by the above procedure (3) for each dilution of each test substance with addition of FGF and without addition of FGF (normal condition) were plotted on a graph paper, and the test substance concentration required for 50% inhibition of the proliferation of cultured FBHE cells was determined from the graph obtained and expressed as an IC50 value.

[1] = 72 h, with addition of FGF (5 ng/ml at maximum)
[2] = 72 h, without addition of FGF (normal condition)

Structure (SMILES) | IC50 [1] [µg/mL] | IC50 [2] [µg/mL] | FGF-/FGF+ ratio | IC50 FGF- (72 h) [µg/mL]
CCOC(=O)c1sc(Nc2cc(C(C)(C)C)c(O)c(C(C)(C)C)c2)nc1C [Example 18, 2,6-Di-tert-butyl-4-[(4-methyl-5-ethoxycarbonyl-2-thiazolyl)amino]phenol] | 1.92 (≈ 4.92 µM) | 11.9 (≈ 30.5 µM) | 6.2 | 
CCOC(=O)c1csc(Oc2cc(C(C)(C)C)c(O)c(C(C)(C)C)c2)n1 [Example 40, 2,6-di-tert-butyl-4-[(4-ethoxycarbonyl-2-thiazolyl)oxy]phenol] | 0.74 (≈ 1.96 µM) | 5.72 (≈ 15.2 µM) | 7.7 | 
CC(C)(C)c1cc(Nc2nc(C(=O)NN)cs2)cc(C(C)(C)C)c1O [Example 35, 2,6-di-di-tert-butyl-4-[(4-carbazoyl-2-thiazolyl)amino]phenol] | 0.61 (≈ 1.68 µM) | 3.66 (≈ 10.1 µM) | 6.0 | 
CC(C)(C)c1cc(Sc2nccs2)cc(C(C)(C)C)c1O [Example 42, 2,6-Di-tert-butyl-4-(2-thiazolylthio)phenol] | 1.85 (≈ 5.75 µM) | 8.71 (≈ 27.1 µM) | 4.7 | 
CC(C)(C)c1cc(Nc2nc(CO)cs2)cc(C(C)(C)C)c1O.Cl.Cl [Example 25, 2,6-di-tert-butyl-4-[(4-hydroxymethyl-2-thiazolyl)amino]phenol dihydrochlo ride] | 0.92 | 5.76 | 6.3 | 
Cc1nc(Nc2cc(C(C)(C)C)c(O)c(C(C)(C)C)c2)sc1C [Example 11, 2,6-Di-tert-butyl-4-[(4,5-dimethyl-2-thiazolyl)amino]phenol] | 6.14 (≈ 18.5 µM) |  | 4.2 | 25.94 (≈ 78 µM)
CCCCCc1sc(Nc2cc(C(C)(C)C)c(O)c(C(C)(C)C)c2)nc1C [Example 6] | 2.18 (≈ 5.61 µM) | 9.21 (≈ 23.7 µM) | 4.2 | 
CC(C)(C)c1cc(Nc2nccs2)cc(C(C)(C)C)c1O [Example 2, 2,6-Di-tert-butyl-4-[(2-thiazolyl)amino]phenol] | 0.89 (≈ 2.92 µM) | 10.7 (≈ 35.1 µM) | 12.0 | 
CCSc1sc(Nc2cc(C(C)(C)C)c(O)c(C(C)(C)C)c2)nc1C [Example 12, 2,6-Di-tert-butyl-4-[(4-methyl-5-ethylthio-2-thiazolyl)amino]phenol] | 1.55 (≈ 4.09 µM) | 6.53 (≈ 17.2 µM) | 4.2 | 
